Values after ≈ are worked out from the molar mass of the structure shown. Values joined by “and” are separate entries in the source; they are usually repeats but may differ in a detail not shown here. Identical values can stand only once.
Legend:
[1] = Aqueous solubility by UV spectrophotometry; type: physicochemical
Protocol: Scutellarin (1) and scutellarein (2) (300 μg) were dissolved in 25 mL CH3OH, and 3 (300 μg) was dissolved in 25 mL water. […] Each tested compound (250 μg) was ultrasound dissolved in 10 mL pure water for 1 h at 25 °C, and the solutions were stood for 30 min before centrifuging at the speed of 30,000 r/min. Absorbances of each compound were obtained by UV scanning, and the aqueous solubility of all three compounds were obtained through analysis of the standard curve.

[2] = DPPH-radical scavenging ability assay; type: biochemical; details: DPPH 80 μmol/L in DMSO, 30 min in the dark
Protocol: Antioxidants play important roles in removing free radicals, as antioxidants provide hydrogen to free radicals and prohibit the adverse reactions from destroying normal tissues. This assay was measured according to previous studies.
The following method was adopted to evaluate the 1,1-diphenyl-2-picrylhydrazyl (DPPH) scavenging property of the products: scutellarin (1), scutellarein (2), and 3 were dissolved in DMSO to result in final concentrations ranging from 16 to 250 μmol/L, and then DPPH (80 μmol/L, 100 μL) dissolved in DMSO was added in the testing samples. After incubating for 30 min in the dark, the scavenging effect was calculated according to the following equation:Scavenging effect (%) = [(1 − (A1 − A2)/A0] × 100%(1) where A0 is the absorbance of the control (without extract), A1 is the absorbance in the presence of the extract, and A2 is the absorbance without DPPH.

[3] = system: Platelet-poor plasma (PPP), thrombin time; test: Antithrombic assay: thrombin time (TT); type: biochemical, New Zealand white rabbits; details: rabbit PPP, compound 100 μM, mean ± SD n = 4, blank plasma 19.85 ± 1.59
Description: (§1) According to our previous studies, the antithrombotic activity could be estimated by measuring the prolongation of the plasma clotting time of thrombin time (TT), activated partial thromboplastin time (APTT), international normalized ratio (INR) increase in prothrombin time (PT), and reduction in fibrinogen (FIB) content.
(§2) Male New Zealand white rabbits weighing 2–2.5 kg were obtained from the experimental animal center of Nanjing University of Chinese Medicine and were approved by Animal Ethics Committee of Nanjing University of Chinese Medicine. They were kept in plastic cages at 22 ± 2 °C with free access to pellet food and water and on a 12 h light/dark cycle. Animal welfare and experimental procedures were carried out in accordance with the guide for the care and use of laboratory animals (National Research Council of USA, 1996) and related ethical regulations of Nanjing University of Chinese Medicine. Rabbits were anesthetized with pentobarbital (50 mg/kg) and blood was drawn from the common carotid artery. Blood was collected into plastic tubes with 3.8% sodium citrate (citrate/blood: 1:9, v/v) for plasma anticoagulation. Platelet-poor plasma (PPP) was separated from blood by centrifugation at 3000 rpm for 10 min.
(§3) TT, APTT, PT, and FIB were tested with commercial kits following the manufacturer’s instructions by a coagulometer (Model LG-PABER-I, Steellex Co., Beijing, China). All the compounds were dissolved in PBS with 20% DMSO, and the concentration was 100 μM. TT was determined by incubating 40 μL PPP solution for 3 min at 37 °C, followed by addition of 40 μL thrombin solution and 20 μL sample for 3 min at 37 °C. APTT was determined by incubating 10 μL sample solution and 50 μL PPP solution with 50 μL APTT-activating agent for 3 min at 37 °C, followed by the addition of 50 μL CaCl2. PT was determined by incubating 40 μL PPP solution for 3 min at 37 °C, followed by the addition of 40 μL thromboplastin agent and 20 μL sample. FIB was determined by incubating 10 μL PPP solution with 90 μL imidazole buffer for 3 min at 37 °C, followed by addition of 50 μL FIB agent and 10 μL sample solution. By measuring the prolongation of the plasma clotting time of thrombin time (TT), activated partial thromboplastin time (APTT), INR increase in prothrombin time (PT), and reduction in fibrinogen (FIB) content, the antithrombotic activity was assessed.

[4] = system: Platelet-poor plasma (PPP), activated partial thromboplastin time; test: Antithrombic assay: activated partial thromboplastin time (APTT); type: biochemical, New Zealand white rabbits; details: rabbit PPP, compound 100 μM, mean ± SD n = 4, blank plasma 29.83 ± 3.86
Description: as §1, §2, §3

[5] = system: Platelet-poor plasma (PPP), prothrombin time; test: Antithrombic assay: prothrombin time (PT); type: biochemical, New Zealand white rabbits; details: rabbit PPP, compound 100 μM, mean ± SD n = 4, blank plasma 5.03 ± 0.24
Description: as §1, §2, §3

[6] = system: Platelet-poor plasma (PPP), fibrinogen; test: Antithrombic assay: fibrinogen (FIB) content; type: biochemical, New Zealand white rabbits; details: rabbit PPP, compound 100 μM, mean ± SD n = 4, blank plasma 7.23 ± 0.38
Description: as §1, §2, §3

[7] = design: method as in PMID 16997537; details: cited from earlier work

Row | solubility at 1 h ([1]; 25 °C, water, thermodynamic from solid) | IC50 [2] | Solubility ([1]; 1 h) | SMILES | TT [3] | APTT [4] | PT [5] | FIB [6] | Solubility ([1]; in pure water, 25 °C, UV spectrophotometry) | TT ([3]; listed as scutellarin (1)) | APTT ([4]; listed as scutellarin (1)) | PT ([5]; listed as scutellarin (1)) | FIB ([6]; listed as scutellarin (1)) | aqueous solubility [7] | TT ([3]; listed as scutellarein (2)) | APTT ([4]; listed as scutellarein (2)) | PT ([5]; listed as scutellarein (2)) | FIB ([6]; listed as scutellarein (2))
1 | 1.95 mg/mL (≈ 5320 µM) | 16.8 µM | – | O=c1cc(-c2ccc(O)cc2)oc2c(S(=O)(=O)O)c(O)c(O)c(O)c12 [compound 3, 5,6,7-Trihydroxy-2-(4-hydroxyphenyl)-4-oxo-4H-chromene-8-sulfonic acid] | 23.71 s and 23.71 ± 1.82 s | 30.33 s and 30.33 ± 1.06 s | 6.33 s and 6.33 ± 1.87 s | 7.01 g/L and 7.01 ± 0.96 g/L | – | – | – | – | – | – | – | – | – | –
2 | – | 16.1 µM | 0.00685 mg/mL (≈ 23.9 µM) | O=c1cc(-c2ccc(O)cc2)oc2cc(O)c(O)c(O)c12 [Scutellarein (2), 5,6,7-Trihydroxy-2-(4-hydroxyphenyl)-4H-chromen-4-one] | 24.48 ± 1.18 s | 36.12 ± 2.20 s | 5.93 ± 0.81 s | 6.91 ± 0.12 g/L | – | – | – | – | – | – | 24.48 s | 36.12 s | 5.93 s | 6.91 g/L

Row | SMILES | solubility at 1 h ([1]; 25 °C, water, thermodynamic from solid) | IC50 [2] | Solubility ([1]; 1 h) | TT [3] | APTT [4] | PT [5] | FIB [6] | Solubility ([1]; in pure water, 25 °C, UV spectrophotometry) | TT ([3]; listed as scutellarin (1)) | APTT ([4]; listed as scutellarin (1)) | PT ([5]; listed as scutellarin (1)) | FIB ([6]; listed as scutellarin (1)) | aqueous solubility [7] | TT ([3]; listed as scutellarein (2)) | APTT ([4]; listed as scutellarein (2)) | PT ([5]; listed as scutellarein (2)) | FIB ([6]; listed as scutellarein (2))
3 | O=C(O)[C@H]1O[C@@H](Oc2cc3oc(-c4ccc(O)cc4)cc(=O)c3c(O)c2O)[C@H](O)[C@@H](O)[C@@H]1O [Scutellarin (1), 4′,5,6-trihydroxyflavone-7-glucuronide] | – | 17.9 µM | – | 23.25 ± 1.55 s | 33.78 ± 2.32 s | 6.25 ± 0.08 s | 6.41 ± 0.15 g/L | 0.00762 mg/mL (≈ 16.5 µM) | 23.25 s | 33.78 s | 6.25 s | 6.41 g/L | 0.0144 ± 0.00017 mg/mL (≈ 31.1 µM) | – | – | – | –
